Source: patent US11247987B2, “Inhibiting ubiquitin specific peptidase 30” (FORMA Therapeutics, Inc., priority 2017, dated 2022)

The molecules below were run against T1, human recombinant USP30 (Homo sapiens, UniProt Q70CQ3) (assay: Ubiquitin-Rhodamine 110 Assay for USP30 Activity (USP30 Inhibitor Biochemical Assay)). Conditions: 0.2 nM USP30, 25 nM Ub-Rh110, 30 min preincubation, 30 min at room temperature; read-out: USP30 potency range (USP30 biochemical IC50 assay, IC50 ranges).
T1 construct: purchased Boston Biochem E-582
T1 sequence (Q70CQ3 1-517): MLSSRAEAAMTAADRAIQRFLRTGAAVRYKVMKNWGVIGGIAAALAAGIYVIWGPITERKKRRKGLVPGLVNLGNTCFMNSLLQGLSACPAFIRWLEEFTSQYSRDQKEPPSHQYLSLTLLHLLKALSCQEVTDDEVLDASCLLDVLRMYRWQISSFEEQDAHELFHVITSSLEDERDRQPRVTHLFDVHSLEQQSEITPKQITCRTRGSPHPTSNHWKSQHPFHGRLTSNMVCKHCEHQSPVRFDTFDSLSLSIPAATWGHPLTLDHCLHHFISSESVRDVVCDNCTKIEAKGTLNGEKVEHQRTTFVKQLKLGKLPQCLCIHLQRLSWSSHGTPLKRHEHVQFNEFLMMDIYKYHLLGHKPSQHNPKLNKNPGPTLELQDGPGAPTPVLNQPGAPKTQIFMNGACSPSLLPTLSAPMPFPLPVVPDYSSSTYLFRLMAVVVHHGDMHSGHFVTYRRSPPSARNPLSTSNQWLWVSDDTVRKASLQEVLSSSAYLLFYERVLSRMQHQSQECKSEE
How it was run: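 Human recombinant USP30 (0.2 nM final) was preincubated 30 min with compound (25 μM to 1.3 nM, 10-point) in Tris pH 8.0, 1 mM GSH, BGG and Triton X-100. Ub-Rh110 was then added for 30 min at room temperature and stopped with citric acid. Fluorescence at 485/535 nm gave % inhibition and a 4-parameter IC50 fit.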

**Q.** Which IC50 does the source give for `CO[C@]1(C(=O)Nc2nc(Cl)c(C(C)(C)C)s2)C[C@@H](NC#N)C1` [Compound 8-1, N-(5-tert-butyl-4-chloro-1,3-thiazol-2-yl)-3-(cyanoamino)-1-methoxycyclobutane-1-carboxamide] here?
**A.** < 0.1 µM

**Q.** `N#CN[C@H]1CC[C@@H](C(=O)Nc2ncc(C3CCCCC3)s2)CC1` [Compound 10-1, cis-4-(cyanoamino)-N-(5-cyclohexyl-1,3-thiazol-2-yl)cyclohexane-1-carboxamide] was tested. Which IC50 did it give?
**A.** 0.1 to 1 µM

**Q.** With `N#CN[C@H]1CC[C@H](C(=O)Nc2ncc(C3CCCCC3)s2)CC1` [Compound 10-2, trans-4-(cyanoamino)-N-(5-cyclohexyl-1,3-thiazol-2-yl)cyclohexane-1-carboxamide] as the molecule, how does the IC50 read?
**A.** 1 to 10 µM

**Q.** How did the IC50 turn out when `N#CN[C@@H]1CCC[C@H]1C(=O)Nc1ncc(C2CCCCC2)s1` [Compound 10-3, (1R,2R)-2-(cyanoamino)-N-(5-cyclohexyl-1,3-thiazol-2-yl)cyclopentane-1-carboxamide] was run?
**A.** 1 to 10 µM

**Q.** For `N#CN[C@H]1CCC[C@@H](C(=O)Nc2ncc(C3CCCCC3)s2)C1` [Compound 10-4, (1R,3S)-3-(cyanoamino)-N-(5-cyclohexyl-1,3-thiazol-2-yl)cyclohexane-1-carboxamide], which IC50 is on record?
**A.** > 25 µM

**Q.** For `N#CN[C@H]1CCC[C@H](C(=O)Nc2ncc(C3CCCCC3)s2)C1` [Compound 10-5, (1S,3S)-3-(cyanoamino)-N-(5-cyclohexyl-1,3-thiazol-2-yl)cyclohexane-1-carboxamide], which IC50 is on record?
**A.** > 25 µM

**Q.** For `N#CN[C@@H]1CCC[C@H](C(=O)Nc2ncc(C3CCCCC3)s2)C1` [Compound 10-6, (1S,3R)-3-(cyanoamino)-N-(5-cyclohexyl-1,3-thiazol-2-yl)cyclohexane-1-carboxamide], which IC50 is on record?
**A.** 1 to 10 µM

**Q.** For `N#CN[C@H]1CCC[C@H]1C(=O)Nc1ncc(C2CCCCC2)s1` [Compound 10-7, (1R,2S)-2-(cyanoamino)-N-(5-cyclohexyl-1,3-thiazol-2-yl)cyclopentane-1-carboxamide], which IC50 is on record?
**A.** 1 to 10 µM

**Q.** With `N#CN[C@@H]1CCC[C@@H]1C(=O)Nc1ncc(C2CCCCC2)s1` [Compound 10-8, (1S,2R)-2-(cyanoamino)-N-(5-cyclohexyl-1,3-thiazol-2-yl)cyclopentane-1-carboxamide] as the molecule, how does the IC50 read?
**A.** 1 to 10 µM

**Q.** For `N#CN[C@H]1CCC[C@@H]1C(=O)Nc1ncc(C2CCCCC2)s1` [Compound 10-9, (1S,2S)-2-(cyanoamino)-N-(5-cyclohexyl-1,3-thiazol-2-yl)cyclopentane-1-carboxamide], which IC50 is on record?
**A.** 1 to 10 µM

**Q.** `N#CN[C@H]1CC[C@H](C(=O)Nc2ncc(C3CCOCC3)s2)C1` [Compound 10-10, (1S,3S)-3-(cyanoamino)-N-[5-(oxan-4-yl)-1,3-thiazol-2-yl]cyclopentane-1-carboxamide] was tested. Which IC50 did it give?
**A.** 1 to 10 µM

**Q.** With `N#CN[C@@H]1CC[C@@H](C(=O)Nc2ncc(C3CCOCC3)s2)C1` [Compound 10-11, (1R,3R)-3-(cyanoamino)-N-[5-(oxan-4-yl)-1,3-thiazol-2-yl]cyclopentane-1-carboxamide] as the molecule, how does the IC50 read?
**A.** 10 to 25 µM

**Q.** For `N#CN[C@H]1CC[C@@H](C(=O)Nc2ncc(-c3ccccc3)s2)C1` [Compound 12-1, (1R,3S)-3-(cyanoamino)-N-(5-phenyl-1,3-thiazol-2-yl)cyclopentane-1-carboxamide], which IC50 is on record?
**A.** 1 to 10 µM

**Q.** Which IC50 does the source give for `N#CN[C@H]1CC[C@H](C(=O)Nc2ccn(-c3ccccc3)n2)C1` [Compound 12-2, (1S,3S)-3-(cyanoamino)-N-(1-phenyl-1H-pyrazol-3-yl)cyclopentane-1-carboxamide] here?
**A.** 10 to 25 µM

**Q.** How did the IC50 turn out when `N#CN[C@H]1CC[C@H](C(=O)Nc2ncc(C3CCCCC3)s2)C1` [Compound 12-3, (1S,3S)-3-(cyanoamino)-N-(5-cyclohexyl-1,3-thiazol-2-yl)cyclopentane-1-carboxamide] was run?
**A.** 0.1 to 1 µM

**Q.** Which IC50 does the source give for `N#CN[C@H]1CC[C@H](C(=O)Nc2ncc(-c3ccccc3)s2)C1` [Compound 12-4, (1S,3S)-3-(cyanoamino)-N-(5-phenyl-1,3-thiazol-2-yl)cyclopentane-1-carboxamide] here?
**A.** 1 to 10 µM

**Q.** `N#CN[C@H]1CC[C@H](C(=O)Nc2ccc3c(c2)CCC3)C1` [Compound 12-5, (1S,3S)-3-(cyanoamino)-N-(2,3-dihydro-1H-inden-5-yl)cyclopentane-1-carboxamide] was tested. Which IC50 did it give?
**A.** 10 to 25 µM

**Q.** How did the IC50 turn out when `N#CN[C@H]1CC[C@H](C(=O)N2CCN(c3ccccc3)CC2)C1` [Compound 12-6, {[(1S,3S)-3-(4-phenylpiperazine-1-carbonyl)cyclopentyl]amino}carbonitrile] was run?
**A.** > 25 µM

**Q.** With `CC(C)(C)c1cnc(NC(=O)[C@H]2CC[C@@H](NC#N)C2)s1` [Compound 12-7, (1S,3R)-N-(5-tert-butyl-1,3-thiazol-2-yl)-3-(cyanoamino)cyclopentane-1-carboxamide] as the molecule, how does the IC50 read?
**A.** 1 to 10 µM

**Q.** For `N#CN[C@H]1CCN(C(=O)c2csc(-c3cccc(Cl)c3Cl)n2)C1` [Compound 12-8, {[(3S)-1-[2-(2,3-dichlorophenyl)-1,3-thiazole-4-carbonyl]pyrolidin-3-yl]amino}carbonitrile], which IC50 is on record?
**A.** 1 to 10 µM

**Q.** How did the IC50 turn out when `N#CNC1CCN(C(=O)c2csc(-c3ccc(Cl)cc3Cl)n2)CC1` [Compound 12-9, ({1-[2-(2,4-dichlorophenyl)-1,3-thiazole-4-carbonyl]piperidin-4-yl}amino)carbonitrile] was run?
**A.** 1 to 10 µM
